Laboratory results from patent publication US8536124B2, “Artificial decapeptide for inducing vitellogenesis in fish” (National Pingtung University of Science & Technology, priority 2010, dated 2013).

Tested on: Mugil cephalus
Assay: Ovum maturation (vitellogenesis) of Mugil cephalus after implantation of sustained-release capsules
Assay type: in vivo
Conditions: M. cephalus, implanted in May, diameter in October; preparation 400 μg, estradiol 1000 μg; FIG. 3
Source text: Additionally, a method for inducing vitellogenesis in fish can also be developed, by implanting the preparation of the present invention into body cavity or body wall of bony fish, for example in lateral muscle or abdomen cavity, in order to inducing the sexual maturation and vitellogenesis in the bony fish. With reference to FIG. 1, the preparation of the present invention is preferably implanted into lateral muscle adjacent to dorsal fin 21 of a bony fish 2 by an injector 1 in the present embodiment. Accordingly, the decapeptide in the preparation can be sustaining released into the bony fish for long-term inducing the hypophysis to synthesize and secrete gonadotropin (GtH) so that the vitellogenesis and breeding of the bony fish can be achieved.
Referring to FIG. 3, the responses of Mugil cephalus on decapeptide-induction are shown. In the present embodiment, several farming M. cephalus, are prepared and randomly assigned into five groups including (b1), (b2) ovaprin group, (b3) estradiol group, (b4) MixT group and (b5) control group. […] Moreover, ova of each group of M. cephalus are collected and analyzed monthly after implantation for monitoring the vitellogenesis in each group of M. cephalus. The ovum maturation of each group of M. cephalus is also determined in accordance with the size and accumulation of the ovum.

## C[C@]12CC[C@@H]3c4ccc(O)cc4CC[C@H]3[C@@H]1CC[C@@H]2O [estradiol]
  oocyte diameter: about 380 μm
